According to ChEMBL document CHEMBL1142718, “Novel indolylindazolylmaleimides as inhibitors of protein kinase C-beta: synthesis, biological activity, and cardiovascular safety” (J Med Chem, 2005):

How the values were obtained:
[1] = target: Protein kinase C alpha type (Homo sapiens, UniProt P17252); assay: Inhibition of human Protein kinase C alpha using [gamma-33P]-ATP
[2] = target: T1, Protein kinase C beta type (Homo sapiens, UniProt P05771); assay: Inhibition of human Protein kinase C beta 2 using [gamma-33P]-ATP
[3] = target: Protein kinase C gamma type (Homo sapiens, UniProt P05129); assay: Inhibition of human Protein kinase C gamma using [gamma-33P]-ATP
[4] = target: T1, Protein kinase C beta type; assay: Inhibition of human Protein kinase C beta 1 using [gamma-33P]-ATP
[5] = Inhibition of Protein Kinase A in P19 cells; type: cell-based, Mus musculus
[6] = Inhibition of Protein kinase C epsilon
[7] = Inhibition of Casein kinase 1 in P19 cells; type: cell-based, Mus musculus
[8] = target: Casein kinase 2 (Mus musculus, UniProt Q60737+P67871+O54833+Q8CH19); assay: Inhibition of Casein kinase 2 of P19 cells; type: cell-based
[9] = target: T2, Protein kinase C zeta type (Homo sapiens) (UniProt Q05513); assay: Inhibition of Protein kinase C zeta at 10 uM
T2 sequence (whole entry): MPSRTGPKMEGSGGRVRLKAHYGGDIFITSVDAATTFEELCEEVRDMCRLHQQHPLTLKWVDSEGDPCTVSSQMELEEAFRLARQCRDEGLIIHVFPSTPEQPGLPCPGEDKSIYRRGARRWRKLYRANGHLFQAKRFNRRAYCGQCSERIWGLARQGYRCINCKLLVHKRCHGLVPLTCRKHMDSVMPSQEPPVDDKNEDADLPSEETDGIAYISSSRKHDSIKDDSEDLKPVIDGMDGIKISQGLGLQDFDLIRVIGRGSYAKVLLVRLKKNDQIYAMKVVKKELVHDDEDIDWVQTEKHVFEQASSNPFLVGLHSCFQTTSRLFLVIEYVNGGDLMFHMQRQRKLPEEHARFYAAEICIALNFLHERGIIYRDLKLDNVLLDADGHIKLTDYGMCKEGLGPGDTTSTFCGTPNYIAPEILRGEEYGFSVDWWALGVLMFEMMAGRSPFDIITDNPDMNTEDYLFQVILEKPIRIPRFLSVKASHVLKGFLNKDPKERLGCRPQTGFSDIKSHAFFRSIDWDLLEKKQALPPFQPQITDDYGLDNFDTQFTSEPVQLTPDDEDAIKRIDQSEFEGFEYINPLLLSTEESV

[10] = target: Mitogen-activated protein kinase 1 (Mus musculus, UniProt P63085); type: cell-based, P19
Description: Inhibition of Mitogen-activated protein kinase/extracellular signal-regulated kinase 2 in P19 cells

[11] = target: T1, Protein kinase C beta type; assay: Inhibition of IL-8 release by HEK293 cells expressing PKC-beta2; type: functional, cell-based
[12] = Inhibition of Vascular endothelial growth factor receptor in P19 cells; type: cell-based, Mus musculus
[13] = target: Platelet-derived growth factor receptor (Mus musculus, UniProt P05622+P26618); assay: Inhibition of Platelet-derived growth factor receptor in P19 cells; type: cell-based
[14] = Inhibition of Calcium/calmodulin-dependent protein kinase type II in P19 cells; type: cell-based, Mus musculus
[15] = target: Protein kinase C delta type (Homo sapiens, UniProt Q05655); assay: Inhibition of Protein kinase C delta
[16] = target: Insulin receptor (Mus musculus, UniProt P15208); assay: Inhibition of Insulin receptor kinase in P19 cells; type: cell-based
[17] = target: Epidermal growth factor receptor (Mus musculus, UniProt Q01279); assay: Inhibition of Epidermal growth factor receptor in P19 cells; type: cell-based
[18] = target: Cyclin-dependent kinase 1 (Mus musculus, UniProt P11440); assay: Inhibition of Cyclin-dependent kinase 1 in P19 cells; type: cell-based
[19] = target: T3, Protein kinase C zeta type (Homo sapiens, UniProt Q05513); assay: Inhibition of Protein kinase C zeta
T3 sequence (Q05513 whole entry): T2 sequence (whole entry)

[20] = target: Voltage-gated inwardly rectifying potassium channel KCNH2 (Homo sapiens, UniProt Q12809)
Chain of Voltage-gated inwardly rectifying potassium channel KCNH2 (Q12809 whole entry): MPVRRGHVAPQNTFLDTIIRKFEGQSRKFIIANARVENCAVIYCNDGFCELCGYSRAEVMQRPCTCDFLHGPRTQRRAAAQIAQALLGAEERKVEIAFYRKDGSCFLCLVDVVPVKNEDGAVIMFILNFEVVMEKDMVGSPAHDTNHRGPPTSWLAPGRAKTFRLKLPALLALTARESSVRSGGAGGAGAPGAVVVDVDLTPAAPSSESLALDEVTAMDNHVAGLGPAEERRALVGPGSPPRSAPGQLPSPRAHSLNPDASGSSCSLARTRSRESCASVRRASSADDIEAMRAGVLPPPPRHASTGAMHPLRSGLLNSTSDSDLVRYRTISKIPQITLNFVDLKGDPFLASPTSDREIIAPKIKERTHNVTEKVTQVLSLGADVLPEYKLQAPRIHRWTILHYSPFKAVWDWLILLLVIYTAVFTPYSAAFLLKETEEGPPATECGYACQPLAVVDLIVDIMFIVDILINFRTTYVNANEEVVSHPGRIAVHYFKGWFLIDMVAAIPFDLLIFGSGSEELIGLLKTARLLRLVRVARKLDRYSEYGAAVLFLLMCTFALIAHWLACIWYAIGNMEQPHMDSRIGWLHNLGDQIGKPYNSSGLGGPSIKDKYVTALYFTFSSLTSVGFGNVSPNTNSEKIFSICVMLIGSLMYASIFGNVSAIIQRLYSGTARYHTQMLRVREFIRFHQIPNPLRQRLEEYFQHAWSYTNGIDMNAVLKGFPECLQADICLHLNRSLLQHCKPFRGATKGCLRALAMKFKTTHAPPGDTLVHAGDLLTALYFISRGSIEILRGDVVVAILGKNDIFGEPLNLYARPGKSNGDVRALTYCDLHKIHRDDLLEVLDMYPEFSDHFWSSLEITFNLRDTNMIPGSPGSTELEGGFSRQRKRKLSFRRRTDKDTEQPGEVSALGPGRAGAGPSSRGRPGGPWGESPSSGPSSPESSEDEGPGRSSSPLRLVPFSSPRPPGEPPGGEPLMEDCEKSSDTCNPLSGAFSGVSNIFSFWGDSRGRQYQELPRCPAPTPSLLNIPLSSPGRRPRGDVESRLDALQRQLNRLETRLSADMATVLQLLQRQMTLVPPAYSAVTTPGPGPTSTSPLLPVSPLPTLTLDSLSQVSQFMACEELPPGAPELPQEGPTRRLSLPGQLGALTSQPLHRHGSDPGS
Description: Inhibition of [3H]astemizole binding to Potassium channel HERG

Chain of Protein kinase C delta type (Q05655 whole entry): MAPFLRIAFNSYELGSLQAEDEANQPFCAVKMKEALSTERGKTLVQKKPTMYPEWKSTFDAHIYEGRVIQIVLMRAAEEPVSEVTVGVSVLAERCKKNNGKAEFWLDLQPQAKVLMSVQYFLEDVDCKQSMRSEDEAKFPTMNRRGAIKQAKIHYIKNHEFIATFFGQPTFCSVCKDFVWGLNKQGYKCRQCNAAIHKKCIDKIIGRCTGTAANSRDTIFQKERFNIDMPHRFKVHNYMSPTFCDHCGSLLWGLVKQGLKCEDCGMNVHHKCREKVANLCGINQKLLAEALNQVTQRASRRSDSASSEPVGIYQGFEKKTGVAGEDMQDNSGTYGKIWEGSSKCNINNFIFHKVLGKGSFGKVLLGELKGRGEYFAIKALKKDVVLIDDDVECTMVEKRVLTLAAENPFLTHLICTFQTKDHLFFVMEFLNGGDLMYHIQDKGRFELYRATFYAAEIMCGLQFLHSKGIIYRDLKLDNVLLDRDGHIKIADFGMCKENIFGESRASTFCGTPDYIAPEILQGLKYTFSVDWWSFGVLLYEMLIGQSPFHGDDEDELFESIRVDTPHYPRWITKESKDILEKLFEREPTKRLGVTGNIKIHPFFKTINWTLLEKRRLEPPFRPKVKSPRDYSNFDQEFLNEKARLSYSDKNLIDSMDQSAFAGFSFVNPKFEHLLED
T1 sequence (P05771 whole entry): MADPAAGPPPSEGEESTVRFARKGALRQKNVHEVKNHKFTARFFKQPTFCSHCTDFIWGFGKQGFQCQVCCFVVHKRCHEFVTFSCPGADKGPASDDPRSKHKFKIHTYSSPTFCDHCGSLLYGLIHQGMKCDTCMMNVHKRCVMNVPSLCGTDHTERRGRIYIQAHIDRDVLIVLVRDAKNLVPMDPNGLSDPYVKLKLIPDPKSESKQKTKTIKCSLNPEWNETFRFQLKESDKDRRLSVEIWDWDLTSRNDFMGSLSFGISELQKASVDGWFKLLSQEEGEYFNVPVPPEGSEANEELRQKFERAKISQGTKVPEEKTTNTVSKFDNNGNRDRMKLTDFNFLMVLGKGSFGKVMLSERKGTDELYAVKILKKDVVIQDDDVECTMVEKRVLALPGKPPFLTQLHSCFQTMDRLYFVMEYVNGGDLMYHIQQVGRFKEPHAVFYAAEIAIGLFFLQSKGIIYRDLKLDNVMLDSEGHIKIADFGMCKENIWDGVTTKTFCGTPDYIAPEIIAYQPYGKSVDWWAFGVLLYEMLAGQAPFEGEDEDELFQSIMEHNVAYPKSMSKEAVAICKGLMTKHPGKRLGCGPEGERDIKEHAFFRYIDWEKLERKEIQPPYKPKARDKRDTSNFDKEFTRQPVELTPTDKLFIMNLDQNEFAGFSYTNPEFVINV
Chain of Cyclin-dependent kinase 1 (P11440 whole entry): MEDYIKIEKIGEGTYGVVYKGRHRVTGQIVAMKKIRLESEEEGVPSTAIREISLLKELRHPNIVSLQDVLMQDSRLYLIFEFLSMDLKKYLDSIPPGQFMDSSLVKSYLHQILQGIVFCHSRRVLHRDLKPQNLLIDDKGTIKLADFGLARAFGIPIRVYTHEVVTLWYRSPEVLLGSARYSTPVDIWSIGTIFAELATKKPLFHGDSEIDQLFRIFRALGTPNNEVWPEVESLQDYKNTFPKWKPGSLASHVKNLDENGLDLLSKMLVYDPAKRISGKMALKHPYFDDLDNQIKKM
Chain of Mitogen-activated protein kinase 1 (P63085 whole entry): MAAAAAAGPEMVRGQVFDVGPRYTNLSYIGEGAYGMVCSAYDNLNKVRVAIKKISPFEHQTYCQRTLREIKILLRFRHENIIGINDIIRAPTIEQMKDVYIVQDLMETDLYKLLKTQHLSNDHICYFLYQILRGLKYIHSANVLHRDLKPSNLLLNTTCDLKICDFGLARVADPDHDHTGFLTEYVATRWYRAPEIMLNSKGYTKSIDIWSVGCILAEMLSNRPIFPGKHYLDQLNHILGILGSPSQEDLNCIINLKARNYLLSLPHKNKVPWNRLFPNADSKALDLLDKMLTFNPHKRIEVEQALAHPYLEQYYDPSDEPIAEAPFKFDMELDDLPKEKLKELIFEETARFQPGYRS

SMILES	IC50 [1]	IC50 [2]	IC50 [3]	IC50 [4]	IC50 [5]	IC50 [6]	IC50 [7]	IC50 [8]	inhibition [9]	IC50 [10]	IC50 [11]	IC50 [12]	IC50 [13]	IC50 [14]	IC50 [15]	IC50 [16]	IC50 [17]	IC50 [18]	IC50 [19]	Ki [20]
CN(C)CCCn1nc(C2=C(c3cn(-c4ccccc4)c4ccccc34)C(=O)NC2=O)c2ccccc21	150 nM	13 nM	370 nM	46 nM	–	–	–	–	–	–	–	–	–	–	–	–	–	–	–	–
CN(C)CCCn1nc(C2=C(c3cn(-c4cccs4)c4ccccc34)C(=O)NC2=O)c2ccccc21	220 nM	10 nM	280 nM	15 nM	6.2 µM	140 nM	> 10 µM	> 10 µM	57%	> 10 µM	75 nM	5 µM	2.2 µM	7 µM	86 nM	> 10 µM	> 10 µM	–	–	–
CN(C)CCCn1nc(C2=C(c3cn(-c4cccnc4)c4ccccc34)C(=O)NC2=O)c2ccccc21	120 nM	–	210 nM	19 nM	> 10 µM	330 nM	> 10 µM	> 10 µM	–	> 10 µM	82 nM	3.7 µM	5.2 µM	3.8 µM	250 nM	> 10 µM	> 10 µM	310 nM	4.4 µM	–
CN[C@@H]1C[C@H]2O[C@@](C)([C@@H]1OC)n1c3ccccc3c3c4c(c5c6ccccc6n2c5c31)C(=O)NC4 [STAUROSPORINE]	–	–	–	–	0.004 µM	–	1.4 µM	> 10 µM	–	–	–	0.014 µM	0.002 µM	0.006 µM	–	–	–	8 nM	–	–
CN(C)CCCn1nc(C2=C(c3cn(-c4csc5ccccc45)c4ccccc34)C(=O)NC2=O)c2ccccc21	–	–	–	86 nM	> 10 µM	3100 nM	> 10 µM	> 10 µM	–	> 10 µM	630 nM	> 10 µM	> 10 µM	5.6 µM	1500 nM	> 10 µM	> 10 µM	> 10000 nM	> 10 µM	–
O=C1NC(=O)C(c2nn(CCCN3CCOCC3)c3ccccc23)=C1c1cn(-c2ccc3ccccc3c2)c2ccccc12	–	–	–	190 nM	–	–	–	–	–	–	72 nM	–	–	–	–	–	–	–	–	850 nM
CN(C)CCCn1nc(C2=C(c3cn(-c4cnc5ccccc5c4)c4ccccc34)C(=O)NC2=O)c2ccccc21	–	–	–	7 nM	> 10 µM	140 nM	> 10 µM	> 10 µM	–	> 10 µM	20 nM	> 10 µM	5.9 µM	> 10 µM	31 nM	> 10 µM	> 10 µM	1600 nM	5.7 µM	–
CN(C)CCCn1nc(C2=C(c3cn(-c4cccc5ccccc45)c4ccccc34)C(=O)NC2=O)c2ccccc21	1200 nM	–	3400 nM	87 nM	> 10 µM	4200 nM	> 10 µM	> 10 µM	–	> 10 µM	600 nM	6.9 µM	> 10 µM	> 10 µM	2200 nM	> 10 µM	> 10 µM	1900 nM	> 10 µM	–
CN1CCN(CCCn2nc(C3=C(c4cn(-c5ccc6ccccc6c5)c5ccccc45)C(=O)NC3=O)c3ccccc32)CC1	320 nM	92 nM	–	62 nM	–	–	–	–	–	–	–	–	–	–	–	–	–	–	–	290 nM
CN(C)CCCn1nc(C2=C(c3cn(-c4ccc5ccccc5c4)c4ccccc34)C(=O)NC2=O)c2ccccc21	–	–	110 nM	33 nM	> 10 µM	330 nM	> 10 µM	> 10 µM	–	> 10 µM	24 nM	1 µM	5.9 µM	6.1 µM	490 nM	> 10 µM	> 10 µM	1300 nM	6.2 µM	–
O=C1NC(=O)C(c2cn(-c3cccnc3)c3ccccc23)=C1c1[nH]nc2ccccc12	1000 nM	220 nM	–	460 nM	–	–	–	–	–	–	–	–	–	–	–	–	–	–	–	–
O=C1NC(=O)C(c2nn(CCCN3CCCC3)c3ccccc23)=C1c1cn(-c2ccc3ccccc3c2)c2ccccc12	–	–	–	120 nM	–	–	–	–	–	–	170 nM	–	–	–	–	–	–	–	–	11 nM
CN(C)CCCn1nc(C2=C(c3cn(-c4cncc5ccccc45)c4ccccc34)C(=O)NC2=O)c2ccccc21	–	–	250 nM	92 nM	–	–	–	–	–	–	86 nM	–	–	–	–	–	–	–	–	–
